Results taken from the NIST ThermoML archive (doi:10.1016/j.jct.2006.05.004).
Numbers after ± are expanded uncertainties.

Key:
[1] = excess molar enthalpy (molar enthalpy of mixing); xn = mol fraction of the nth substance listed; conditions: 298.15 K, 101 kPa, Liquid
[2] = xn = mol fraction of the nth substance listed; conditions: 298.15 K, 101 kPa, Liquid

## BrCCCCCCBr [1,6-dibromohexane] + CCC(=O)OC
[1]; x2 = 0.0951
  excess molar enthalpy: 0.0356 ± 0.000932 kcal/mol
[1]; x2 = 0.1915
  excess molar enthalpy: 0.0572 ± 0.00127 kcal/mol
[1]; x2 = 0.2814
  excess molar enthalpy: 0.0727 ± 0.00151 kcal/mol
[1]; x2 = 0.3659
  excess molar enthalpy: 0.0818 ± 0.00165 kcal/mol
[1]; x2 = 0.4423
  excess molar enthalpy: 0.0858 ± 0.0017 kcal/mol
[1]; x2 = 0.5073
  excess molar enthalpy: 0.0845 ± 0.00167 kcal/mol
[1]; x2 = 0.5644
  excess molar enthalpy: 0.0809 ± 0.00163 kcal/mol
[1]; x2 = 0.6136
  excess molar enthalpy: 0.076 ± 0.00155 kcal/mol
[1]; x2 = 0.6648
  excess molar enthalpy: 0.067 ± 0.00141 kcal/mol
[1]; x2 = 0.7136
  excess molar enthalpy: 0.0588 ± 0.00129 kcal/mol
[1]; x2 = 0.7663
  excess molar enthalpy: 0.0488 ± 0.00112 kcal/mol
[1]; x2 = 0.817
  excess molar enthalpy: 0.0397 ± 0.00098 kcal/mol
[1]; x2 = 0.8647
  excess molar enthalpy: 0.0308 ± 0.00086 kcal/mol
[1]; x2 = 0.9137
  excess molar enthalpy: 0.0207 ± 0.000693 kcal/mol
[1]; x2 = 0.9606
  excess molar enthalpy: 0.0103 ± 0.00055 kcal/mol
[2]; x2 = 0.0903
  mass density: 1557.49 ± 4.9 kg/m3
[2]; x2 = 0.1731
  mass density: 1517.27 ± 4.4 kg/m3
[2]; x2 = 0.254
  mass density: 1475.55 ± 4 kg/m3
[2]; x2 = 0.3276
  mass density: 1435.11 ± 3.6 kg/m3
[2]; x2 = 0.3987
  mass density: 1393.7 ± 3.2 kg/m3
[2]; x2 = 0.4603
  mass density: 1355.72 ± 2.9 kg/m3
[2]; x2 = 0.5254
  mass density: 1313.37 ± 2.6 kg/m3
[2]; x2 = 0.5807
  mass density: 1275.39 ± 2.3 kg/m3
[2]; x2 = 0.6388
  mass density: 1233.34 ± 2 kg/m3
[2]; x2 = 0.695
  mass density: 1190.53 ± 1.8 kg/m3
[2]; x2 = 0.7429
  mass density: 1152.05 ± 1.5 kg/m3
[2]; x2 = 0.7914
  mass density: 1111.32 ± 1.3 kg/m3
[2]; x2 = 0.838
  mass density: 1070.17 ± 1.1 kg/m3
[2]; x2 = 0.8789
  mass density: 1032.36 ± 0.91 kg/m3
[2]; x2 = 0.9195
  mass density: 993.3 ± 0.79 kg/m3
[2]; x2 = 0.9621
  mass density: 950.1 ± 0.9 kg/m3

## BrCCCCCCBr [1,6-dibromohexane] + COC(C)=O
[1]; x2 = 0.1165
  excess molar enthalpy: 0.063 ± 0.00136 kcal/mol
[1]; x2 = 0.2329
  excess molar enthalpy: 0.104 ± 0.00198 kcal/mol
[1]; x2 = 0.317
  excess molar enthalpy: 0.13 ± 0.00239 kcal/mol
[1]; x2 = 0.4064
  excess molar enthalpy: 0.148 ± 0.00263 kcal/mol
[1]; x2 = 0.4865
  excess molar enthalpy: 0.156 ± 0.00287 kcal/mol
[1]; x2 = 0.553
  excess molar enthalpy: 0.156 ± 0.00287 kcal/mol
[1]; x2 = 0.6074
  excess molar enthalpy: 0.151 ± 0.00263 kcal/mol
[1]; x2 = 0.6546
  excess molar enthalpy: 0.143 ± 0.00263 kcal/mol
[1]; x2 = 0.6988
  excess molar enthalpy: 0.135 ± 0.00239 kcal/mol
[1]; x2 = 0.7443
  excess molar enthalpy: 0.124 ± 0.00229 kcal/mol
[1]; x2 = 0.7905
  excess molar enthalpy: 0.108 ± 0.00206 kcal/mol
[1]; x2 = 0.837
  excess molar enthalpy: 0.0889 ± 0.00174 kcal/mol
[1]; x2 = 0.8808
  excess molar enthalpy: 0.0701 ± 0.00148 kcal/mol
[1]; x2 = 0.9257
  excess molar enthalpy: 0.0424 ± 0.00105 kcal/mol
[1]; x2 = 0.9683
  excess molar enthalpy: 0.0205 ± 0.000717 kcal/mol
[2]; x2 = 0.2073
  mass density: 1527.77 ± 4.4 kg/m3
[2]; x2 = 0.2887
  mass density: 1489.28 ± 4 kg/m3
[2]; x2 = 0.368
  mass density: 1448.7 ± 3.6 kg/m3
[2]; x2 = 0.44
  mass density: 1408.44 ± 3.2 kg/m3
[2]; x2 = 0.5134
  mass density: 1363.84 ± 2.9 kg/m3
[2]; x2 = 0.5691
  mass density: 1327.2 ± 2.6 kg/m3
[2]; x2 = 0.6301
  mass density: 1284.18 ± 2.3 kg/m3
[2]; x2 = 0.7305
  mass density: 1205.44 ± 1.8 kg/m3
[2]; x2 = 0.7765
  mass density: 1165.56 ± 1.6 kg/m3
[2]; x2 = 0.8189
  mass density: 1126.42 ± 1.4 kg/m3
[2]; x2 = 0.8614
  mass density: 1084.46 ± 1.2 kg/m3
[2]; x2 = 0.8974
  mass density: 1046.81 ± 0.99 kg/m3
[2]; x2 = 0.9345
  mass density: 1005.74 ± 0.82 kg/m3
[2]; x2 = 0.9663
  mass density: 968.1 ± 0.88 kg/m3

## BrCCCBr [1,3-dibromopropane] + CCC(=O)OC
[1]; x2 = 0.0646
  excess molar enthalpy: 0.0167 ± 0.00127 kcal/mol
[1]; x2 = 0.1354
  excess molar enthalpy: 0.0273 ± 0.00158 kcal/mol
[1]; x2 = 0.2107
  excess molar enthalpy: 0.0338 ± 0.00179 kcal/mol
[1]; x2 = 0.2845
  excess molar enthalpy: 0.037 ± 0.00189 kcal/mol
[1]; x2 = 0.3517
  excess molar enthalpy: 0.0365 ± 0.00186 kcal/mol
[1]; x2 = 0.4137
  excess molar enthalpy: 0.0336 ± 0.00179 kcal/mol
[1]; x2 = 0.4627
  excess molar enthalpy: 0.03 ± 0.00167 kcal/mol
[1]; x2 = 0.4703
  excess molar enthalpy: 0.0293 ± 0.00165 kcal/mol
[1]; x2 = 0.5077
  excess molar enthalpy: 0.0264 ± 0.00155 kcal/mol
[1]; x2 = 0.5202
  excess molar enthalpy: 0.0247 ± 0.00151 kcal/mol
[1]; x2 = 0.5574
  excess molar enthalpy: 0.0222 ± 0.00143 kcal/mol
[1]; x2 = 0.566
  excess molar enthalpy: 0.0202 ± 0.00136 kcal/mol
[1]; x2 = 0.6073
  excess molar enthalpy: 0.0156 ± 0.00124 kcal/mol
[1]; x2 = 0.6129
  excess molar enthalpy: 0.0138 ± 0.00117 kcal/mol
[1]; x2 = 0.6726
  excess molar enthalpy: 0.00743 ± 0.00098 kcal/mol
[1]; x2 = 0.7385
  excess molar enthalpy: 0.000502 ± 0.000765 kcal/mol
[1]; x2 = 0.8065
  excess molar enthalpy: -0.00323 ± 0.000837 kcal/mol
[1]; x2 = 0.873
  excess molar enthalpy: -0.00351 ± 0.00086 kcal/mol
[1]; x2 = 0.9388
  excess molar enthalpy: -0.00215 ± 0.000813 kcal/mol
[2]; x2 = 0.059
  mass density: 1909.4 ± 7.6 kg/m3
[2]; x2 = 0.1261
  mass density: 1841.06 ± 6.8 kg/m3
[2]; x2 = 0.1889
  mass density: 1776.8 ± 6.2 kg/m3
[2]; x2 = 0.243
  mass density: 1720.78 ± 5.6 kg/m3
[2]; x2 = 0.3657
  mass density: 1593.37 ± 4.5 kg/m3
[2]; x2 = 0.4328
  mass density: 1523.29 ± 3.9 kg/m3
[2]; x2 = 0.4901
  mass density: 1462.96 ± 3.5 kg/m3
[2]; x2 = 0.5464
  mass density: 1403.57 ± 3.1 kg/m3
[2]; x2 = 0.6165
  mass density: 1328.98 ± 2.6 kg/m3
[2]; x2 = 0.7214
  mass density: 1216.43 ± 1.9 kg/m3
[2]; x2 = 0.7712
  mass density: 1162.65 ± 1.6 kg/m3
[2]; x2 = 0.8235
  mass density: 1105.81 ± 1.3 kg/m3
[2]; x2 = 0.8863
  mass density: 1037.06 ± 0.96 kg/m3
[2]; x2 = 0.9375
  mass density: 980.57 ± 0.84 kg/m3
